Source: patent US20250122225A1, “MASP-2 INHIBITORS AND METHODS OF USE” (Omeros Corporation, priority 2023, published 2025)
Structures can show the parent of a compound that is named as a salt.

Assays:
[1] = target: T1, MASP-2 (CCP1-CCP2-SP) (Homo sapiens, UniProt O00187); assay: Enzymatic assay for MASP-2 inhibitory activity (fluorogenic substrate); type: biochemical
T1 construct: 15 μL of Enzyme MASP-2 (CCP1-CCP2-SP) in Assay Buffer
How it was run: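 MASP-2 (CCP1-CCP2-SP) cleaved a fluorogenic substrate based on the C2 cleavage site in 20 mM HEPES pH 7.4, 140 mM NaCl, 0.1% Tween 20 at room temperature. After 20 min the reaction was stopped with 0.1 M acetic acid and fluorescence read. % activity was normalized to DMSO-only and no-enzyme controls; IC50 taken as Ki.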

[2] = target: T2, human α-thrombin (Homo sapiens, UniProt P00734); assay: Enzymatic assay for thrombin (fluorogenic peptide substrate Boc-VPR-AMC); type: biochemical
T2 construct: enzyme (human α-thrombin (BioPharm® Lab.)) in assay buffer; purchased BioPharm® Lab
How it was run: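 Human α-thrombin was run with the fluorogenic substrate Boc-VPR-AMC in 20 mM Hepes pH 7.4, 140 mM NaCl, 0.1% Tween 20 at room temperature for 20 min, then stopped with 0.1 M acetic acid. % activity was normalized to DMSO and no-enzyme controls. Under linear conditions IC50 equalled Ki, except for tight-binding inhibitors.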

T1 sequence (O00187 445-686 limits assumed): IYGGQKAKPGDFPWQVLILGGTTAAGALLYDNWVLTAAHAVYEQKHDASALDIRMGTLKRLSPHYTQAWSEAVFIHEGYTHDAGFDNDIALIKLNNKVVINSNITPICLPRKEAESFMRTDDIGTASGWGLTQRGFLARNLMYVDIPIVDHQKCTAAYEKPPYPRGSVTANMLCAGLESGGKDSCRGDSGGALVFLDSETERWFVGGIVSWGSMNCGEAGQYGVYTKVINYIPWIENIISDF
T1 sequence (O00187 287-444 partner limits assumed): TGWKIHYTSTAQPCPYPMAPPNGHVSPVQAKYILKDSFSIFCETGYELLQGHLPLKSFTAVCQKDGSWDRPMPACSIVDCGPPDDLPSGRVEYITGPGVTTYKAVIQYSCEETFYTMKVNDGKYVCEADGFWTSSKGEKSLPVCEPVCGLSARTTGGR

Row | Structure (SMILES) | Ki [1] [nM] | Ki [2] [nM]
1 | CCc1cccc(CNc2nc(Cl)c3n(c2=O)[C@H](C(=O)NCc2ccc(N)nc2C)CC3)c1 [Compound 4] | < 500 | 500 to 2500
2 | Cc1cc(CNc2ncc3n(c2=O)[C@H](C(=O)NCc2ccc(N)nc2C)CC3)cc(C(F)(F)F)c1 [Compound 37, (S)-N-((6-amino-2-methylpyridin-3-yl)methyl)-3-((3-methyl-5-(trifluoromethyl)benzyl)amino)-4-oxo-4,6,7,8-tetrahydropyrrolo[1,2-a]pyrazine-6-carboxamide] | < 500 | < 500
3 | Cc1cc(C)cc(CNc2ncc3n(c2=O)[C@H](C(=O)NCc2cc4cnccc4[nH]2)CC32CC2)c1 [Compound 123, (S)-N-((1H-pyrrolo[3,2-c]pyridin-2-yl)methyl)-3′-((3,5-dimethylbenzyl)amino)-4′-oxo-6′,7′-dihydro-4′H-spiro[cyclopropane-1,8′-pyrrolo[1,2-a]pyrazine]-6′-carboxamide trifluoroacetate] | < 500 | 500 to 2500
4 | O=C(NCc1cc2cnccc2[nH]1)[C@@H]1CCc2c(Cl)nc(NCc3cccc(-c4ccccc4)c3)c(=O)n21 [Compound 143, (S)—N-((1H-pyrrolo[3,2-c]pyridin-2-yl)methyl)-3-(([1,1′-biphenyl]-3-ylmethyl)amino)-1-chloro-4-oxo-4,6,7,8-tetrahydropyrrolo[1,2-a]pyrazine-6-carboxamide] | < 500 | > 25000
5 | Cc1cc(C)cc(CNc2ncc3n(c2=O)[C@H](C(=O)NCc2ccc(N)nc2C)CC3)c1 [Compound 36, (S)—N-((6-amino-2-methylpyridin-3-yl)methyl)-3-((3,5-dimethylbenzyl)amino)-4-oxo-4,6,7,8-tetrahydropyrrolo[1,2-a]pyrazine-6-carboxamide] | < 500 | < 500
6 | Cc1nc(N)ccc1CNC(=O)[C@@H]1CCc2cnc(NCc3cccc(-c4ccccc4)c3)c(=O)n21 [Compound 220, (S)-3-(([1,1′-biphenyl]-3-ylmethyl)amino)-N-((6-amino-2-methylpyridin-3-yl)methyl)-4-oxo-4,6,7,8-tetrahydropyrrolo[1,2-a]pyrazine-6-carboxamide trifluoroacetate] | < 500 | < 500
7 | Cc1ccc(CNc2nc(Cl)c3n(c2=O)[C@H](C(=O)NCc2cc4cnccc4[nH]2)CC3)cc1C [Compound 26, (S)-N-((1H-pyrrolo[3,2-c]pyridin-2-yl)methyl)-1-chloro-3-((3,4-dimethylbenzyl)amino)-4-oxo-4,6,7,8-tetrahydropyrrolo[1,2-a]pyrazine-6-carboxamide] | < 500 | 10000 to 25000
8 | CCc1cc(CNc2ncc3n(c2=O)[C@H](C(=O)NCc2cc4c(s2)CNC4)CC3)cc(-c2ccccc2)c1 [Compound 262] | < 500 | 500 to 2500
9 | Cc1cc(F)cc(CNc2ncc3n(c2=O)[C@H](C(=O)NCc2cc4cnccc4[nH]2)CC3)c1 [Compound 70, (S)-N-((1H-pyrrolo[3,2-c]pyridin-2-yl)methyl)-3-((3-fluoro-5-methylbenzyl)amino)-4-oxo-4,6,7,8-tetrahydropyrrolo[1,2-a]pyrazine-6-carboxamide] | < 500 | 500 to 2500
10 | Cc1nc(N)ccc1CNC(=O)[C@@H]1CCc2c(Cl)nc(NCc3cccc(S(C)(=O)=O)c3)c(=O)n21 [Compound 98, (S)—N-((6-amino-2-methylpyridin-3-yl)methyl)-1-chloro-3-((3-(methylsulfonyl)benzyl)amino)-4-oxo-4,6,7,8-tetrahydropyrrolo[1,2-a]pyrazine-6-carboxamide trifluoroacetate] | < 500 | 500 to 2500
11 | CC[C@@H](Nc1ncc2n(c1=O)[C@H](C(=O)NCc1cc3c(s1)CNC3)CC2)c1ccc2ccccc2c1 [Compound 263, (S)-N-((5,6-dihydro-4H-thieno[2,3-c]pyrrol-2-yl)methyl)-3-(((R)-1-(naphthalen-2-yl)propyl)amino)-4-oxo-4,6,7,8-tetrahydropyrrolo[1,2-a]pyrazine-6-carboxamide trifluoroacetate] | < 500 | 500 to 2500
12 | CC[C@H]1C[C@@H](C(=O)NCc2ccc(N)nc2C)n2c1cnc(NCc1ccccc1)c2=O [Compound 154, (6S,8S)-N-((6-amino-2-methylpyridin-3-yl)methyl)-3-(benzylamino)-8-ethyl-4-oxo-4,6,7,8-tetrahydropyrrolo[1,2-a]pyrazine-6-carboxamide] | < 500 | < 500
13 | C[C@@H](NC(=O)[C@@H]1CCc2cnc(N[C@@H](c3ccccc3)C3CC3)c(=O)n21)c1cc2c(s1)CNC2 [Compound 272, (S)-3-(((R)-cyclopropyl(phenyl)methyl)amino)-N-((R)-1-(5,6-dihydro-4H-thieno[2,3-c]pyrrol-2-yl)ethyl)-4-oxo-4,6,7,8-tetrahydropyrrolo[1,2-a]pyrazine-6-carboxamide trifluoroacetate] | < 500 | 2500 to 10000
14 | Cc1cc(C)cc(CNc2ncc3n(c2=O)[C@H](C(=O)NCc2cnc(N)c(Cl)c2)CC3)c1 [Compound 189, (S)-N-((6-amino-5-chloropyridin-3-yl)methyl)-3-((3,5-dimethylbenzyl)amino)-4-oxo-4,6,7,8-tetrahydropyrrolo[1,2-a]pyrazine-6-carboxamide] | < 500 | 500 to 2500
15 | Nc1nc(Cl)c2n(c1=O)[C@H](C(=O)NCc1cc3cnccc3[nH]1)CC21CCCC1 [Compound 232, (S)—N-((1H-pyrrolo[3,2-c]pyridin-2-yl)methyl)-3′-amino-1′-chloro-4′-oxo-6′,7′-dihydro-4′H-spiro[cyclopentane-1,8′-pyrrolo[1,2-a]pyrazine]-6′-carboxamide trifluoroacetate] | 500 to 2500 | > 25000
16 | Cc1cccc(CNc2nc(Cl)c3n(c2=O)[C@H](C(=O)NCc2cc4cnccc4[nH]2)CC3)c1 [Compound 114, (S)-N-((1H-pyrrolo[3,2-c]pyridin-2-yl)methyl)-1-chloro-3-((3-methylbenzyl)amino)-4-oxo-4,6,7,8-tetrahydropyrrolo[1,2-a]pyrazine-6-carboxamide trifluoroacetate] | < 500 | 2500 to 10000
17 | O=C(NCc1cc2c(s1)CNC2)[C@@H]1CC2(CC2)c2cnc(NCc3ccccc3)c(=O)n21 [Compound 127, (S)-3′-(benzylamino)-N-((5,6-dihydro-4H-thieno[2,3-c]pyrrol-2-yl)methyl)-4′-oxo-6′,7′-dihydro-4′H-spiro[cyclopropane-1,8′-pyrrolo[1,2-a]pyrazine]-6′-carboxamide trifluoroacetate] | < 500 | 2500 to 10000
18 | Cc1cc(F)cc(CNc2ncc3n(c2=O)[C@H](C(=O)NCc2cnc4ccccn24)CC3)c1 [Compound 204, trifluoroacetate] | 2500 to 10000 | > 25000
19 | Cc1cccc(CNc2nc(Cl)c3n(c2=O)[C@H](C(=O)NCc2cc4cnccc4[nH]2)CC3)c1F [Compound 13, (S)-N-((1H-pyrrolo[3,2-c]pyridin-2-yl)methyl)-1-chloro-3-((2-fluoro-3-methylbenzyl)amino)-4-oxo-4,6,7,8-tetrahydropyrrolo[1,2-a]pyrazine-6-carboxamide] | < 500 | 10000 to 25000
20 | Cc1nc(N)ccc1CNC(=O)[C@H]1CCc2c(Cl)nc(NCc3ccccc3)c(=O)n21 [Compound 135, (R)-N-((6-amino-2-methylpyridin-3-yl)methyl)-3-(benzylamino)-1-chloro-4-oxo-4,6,7,8-tetrahydropyrrolo[1,2-a]pyrazine-6-carboxamide] | < 500 | 2500 to 10000
